Laboratory results from the NIST ThermoML archive (doi:10.1021/je060179e).
Numbers after ± are expanded uncertainties.

Assay: xn = mol fraction of the nth substance listed
Conditions: for mass density: 101 kPa, Liquid

A surface tension liquid-gas (288.15 K, x2 = 0.0498) of 24.31 ± 0.29 mN/m, a surface tension liquid-gas (288.15 K, x2 = 0.1007) of 23.81 ± 0.29 mN/m and a surface tension liquid-gas (288.15 K, x2 = 0.2005) of 22.99 ± 0.28 mN/m were found for `CCCCO` [butan-1-ol] + CCCCCCC in this work. For the same compound, the surface tension liquid-gas (288.15 K, x2 = 0.3043) was 22.37 ± 0.28 mN/m, the surface tension liquid-gas (288.15 K, x2 = 0.4058) was 21.88 ± 0.28 mN/m and the surface tension liquid-gas (288.15 K, x2 = 0.5054) was 21.56 ± 0.27 mN/m. The surface tension liquid-gas (288.15 K, x2 = 0.599) was 21.38 ± 0.27 mN/m, the surface tension liquid-gas (288.15 K, x2 = 0.7072) was 21.17 ± 0.27 mN/m and the surface tension liquid-gas (288.15 K, x2 = 0.8008) was 21.03 ± 0.27 mN/m. The surface tension liquid-gas (288.15 K, x2 = 0.8982) was 20.94 ± 0.27 mN/m, the surface tension liquid-gas (288.15 K, x2 = 0.9532) was 20.87 ± 0.27 mN/m and the mass density (288.15 K, x2 = 0.051) was 803.35 ± 0.44 kg/m3. It also gave a mass density (288.15 K, x2 = 0.0998) of 794.33 ± 0.46 kg/m3, a mass density (288.15 K, x2 = 0.2067) of 776.12 ± 0.49 kg/m3 and a mass density (288.15 K, x2 = 0.3087) of 760.61 ± 0.51 kg/m3. For the same compound, the mass density (288.15 K, x2 = 0.4059) was 747.14 ± 0.53 kg/m3, the mass density (288.15 K, x2 = 0.5052) was 734.63 ± 0.56 kg/m3 and the mass density (288.15 K, x2 = 0.5986) was 724.01 ± 0.57 kg/m3. It also gave a mass density (288.15 K, x2 = 0.7259) of 710.89 ± 0.6 kg/m3, a mass density (288.15 K, x2 = 0.8066) of 703.39 ± 0.61 kg/m3 and a mass density (288.15 K, x2 = 0.908) of 694.8 ± 0.62 kg/m3. For the same compound, the mass density (288.15 K, x2 = 0.9523) was 691.35 ± 0.63 kg/m3, the surface tension liquid-gas (293.15 K, x2 = 0.0503) was 23.76 ± 0.28 mN/m and the surface tension liquid-gas (293.15 K, x2 = 0.1008) was 23.26 ± 0.28 mN/m. For the same compound, the surface tension liquid-gas (293.15 K, x2 = 0.201) was 22.44 ± 0.28 mN/m, the surface tension liquid-gas (293.15 K, x2 = 0.2986) was 21.85 ± 0.28 mN/m and the surface tension liquid-gas (293.15 K, x2 = 0.4002) was 21.37 ± 0.27 mN/m. It also gave a surface tension liquid-gas (293.15 K, x2 = 0.5009) of 21.01 ± 0.27 mN/m, a surface tension liquid-gas (293.15 K, x2 = 0.5998) of 20.79 ± 0.27 mN/m and a surface tension liquid-gas (293.15 K, x2 = 0.7034) of 20.62 ± 0.27 mN/m. For the same compound, the surface tension liquid-gas (293.15 K, x2 = 0.7971) was 20.51 ± 0.27 mN/m, the surface tension liquid-gas (293.15 K, x2 = 0.902) was 20.37 ± 0.27 mN/m and the surface tension liquid-gas (293.15 K, x2 = 0.9511) was 20.33 ± 0.27 mN/m. For the same compound, the mass density (293.15 K, x2 = 0.051) was 799.52 ± 0.45 kg/m3, the mass density (293.15 K, x2 = 0.0998) was 790.46 ± 0.46 kg/m3 and the mass density (293.15 K, x2 = 0.2067) was 772.16 ± 0.49 kg/m3. For the same compound, the mass density (293.15 K, x2 = 0.3087) was 756.57 ± 0.52 kg/m3, the mass density (293.15 K, x2 = 0.4059) was 743 ± 0.54 kg/m3 and the mass density (293.15 K, x2 = 0.5052) was 730.46 ± 0.56 kg/m3. It also gave a mass density (293.15 K, x2 = 0.5986) of 719.8 ± 0.58 kg/m3, a mass density (293.15 K, x2 = 0.7259) of 706.65 ± 0.6 kg/m3 and a mass density (293.15 K, x2 = 0.8066) of 699.15 ± 0.62 kg/m3. It also gave a mass density (293.15 K, x2 = 0.908) of 690.55 ± 0.63 kg/m3, a mass density (293.15 K, x2 = 0.9523) of 687.11 ± 0.64 kg/m3 and a surface tension liquid-gas (298.15 K, x2 = 0.056) of 23.17 ± 0.28 mN/m. For the same compound, the surface tension liquid-gas (298.15 K, x2 = 0.0937) was 22.75 ± 0.28 mN/m, the surface tension liquid-gas (298.15 K, x2 = 0.2085) was 21.94 ± 0.28 mN/m and the surface tension liquid-gas (298.15 K, x2 = 0.302) was 21.35 ± 0.27 mN/m. The surface tension liquid-gas (298.15 K, x2 = 0.3975) was 20.86 ± 0.27 mN/m, the surface tension liquid-gas (298.15 K, x2 = 0.5054) was 20.44 ± 0.27 mN/m and the surface tension liquid-gas (298.15 K, x2 = 0.6086) was 20.17 ± 0.27 mN/m. The surface tension liquid-gas (298.15 K, x2 = 0.806) was 19.99 ± 0.27 mN/m, the surface tension liquid-gas (298.15 K, x2 = 0.9082) was 19.85 ± 0.27 mN/m and the surface tension liquid-gas (298.15 K, x2 = 0.9502) was 19.81 ± 0.27 mN/m. The mass density (298.15 K, x2 = 0.051) was 795.66 ± 0.45 kg/m3, the mass density (298.15 K, x2 = 0.0998) was 786.55 ± 0.47 kg/m3 and the mass density (298.15 K, x2 = 0.2067) was 768.15 ± 0.5 kg/m3. For the same compound, the mass density (298.15 K, x2 = 0.3087) was 752.48 ± 0.52 kg/m3, the mass density (298.15 K, x2 = 0.4059) was 738.85 ± 0.55 kg/m3 and the mass density (298.15 K, x2 = 0.5052) was 726.25 ± 0.57 kg/m3. The mass density (298.15 K, x2 = 0.5986) was 715.56 ± 0.59 kg/m3, the mass density (298.15 K, x2 = 0.7259) was 702.38 ± 0.61 kg/m3 and the mass density (298.15 K, x2 = 0.8066) was 694.86 ± 0.62 kg/m3. For the same compound, the mass density (298.15 K, x2 = 0.908) was 686.27 ± 0.64 kg/m3, the mass density (298.15 K, x2 = 0.9523) was 682.83 ± 0.64 kg/m3 and the surface tension liquid-gas (303.15 K, x2 = 0.0491) was 22.62 ± 0.28 mN/m. It also gave a surface tension liquid-gas (303.15 K, x2 = 0.0997) of 22.16 ± 0.28 mN/m, a surface tension liquid-gas (303.15 K, x2 = 0.2052) of 21.41 ± 0.27 mN/m and a surface tension liquid-gas (303.15 K, x2 = 0.3051) of 20.81 ± 0.27 mN/m. It also gave a surface tension liquid-gas (303.15 K, x2 = 0.4003) of 20.3 ± 0.27 mN/m, a surface tension liquid-gas (303.15 K, x2 = 0.504) of 19.92 ± 0.27 mN/m and a surface tension liquid-gas (303.15 K, x2 = 0.5966) of 19.72 ± 0.26 mN/m. For the same compound, the surface tension liquid-gas (303.15 K, x2 = 0.7052) was 19.48 ± 0.26 mN/m, the surface tension liquid-gas (303.15 K, x2 = 0.8014) was 19.39 ± 0.26 mN/m and the surface tension liquid-gas (303.15 K, x2 = 0.9024) was 19.3 ± 0.26 mN/m. The surface tension liquid-gas (303.15 K, x2 = 0.9507) was 19.27 ± 0.26 mN/m, the mass density (303.15 K, x2 = 0.051) was 791.77 ± 0.46 kg/m3 and the mass density (303.15 K, x2 = 0.0998) was 782.61 ± 0.47 kg/m3. For the same compound, the mass density (303.15 K, x2 = 0.2067) was 764.11 ± 0.5 kg/m3, the mass density (303.15 K, x2 = 0.3087) was 748.35 ± 0.53 kg/m3 and the mass density (303.15 K, x2 = 0.4059) was 734.65 ± 0.55 kg/m3. For the same compound, the mass density (303.15 K, x2 = 0.5052) was 722 ± 0.57 kg/m3, the mass density (303.15 K, x2 = 0.5986) was 711.28 ± 0.59 kg/m3 and the mass density (303.15 K, x2 = 0.7259) was 698.07 ± 0.61 kg/m3. The mass density (303.15 K, x2 = 0.8066) was 690.54 ± 0.63 kg/m3, the mass density (303.15 K, x2 = 0.908) was 681.95 ± 0.64 kg/m3 and the mass density (303.15 K, x2 = 0.9523) was 678.52 ± 0.65 kg/m3. For the same compound, the surface tension liquid-gas (308.15 K, x2 = 0.0507) was 22.35 ± 0.28 mN/m, the surface tension liquid-gas (308.15 K, x2 = 0.1017) was 21.89 ± 0.27 mN/m and the surface tension liquid-gas (308.15 K, x2 = 0.2054) was 20.98 ± 0.27 mN/m. It also gave a surface tension liquid-gas (308.15 K, x2 = 0.3025) of 20.33 ± 0.27 mN/m, a surface tension liquid-gas (308.15 K, x2 = 0.4017) of 19.87 ± 0.26 mN/m and a surface tension liquid-gas (308.15 K, x2 = 0.5052) of 19.53 ± 0.26 mN/m. The surface tension liquid-gas (308.15 K, x2 = 0.6007) was 19.28 ± 0.26 mN/m, the surface tension liquid-gas (308.15 K, x2 = 0.7306) was 19.2 ± 0.26 mN/m and the surface tension liquid-gas (308.15 K, x2 = 0.8079) was 19.1 ± 0.26 mN/m. The surface tension liquid-gas (308.15 K, x2 = 0.9086) was 18.99 ± 0.26 mN/m, the surface tension liquid-gas (308.15 K, x2 = 0.9532) was 18.9 ± 0.26 mN/m and the mass density (308.15 K, x2 = 0.051) was 787.85 ± 0.47 kg/m3. The mass density (308.15 K, x2 = 0.0998) was 778.63 ± 0.48 kg/m3, the mass density (308.15 K, x2 = 0.2067) was 760.04 ± 0.51 kg/m3 and the mass density (308.15 K, x2 = 0.3087) was 744.18 ± 0.54 kg/m3. For the same compound, the mass density (308.15 K, x2 = 0.4059) was 730.42 ± 0.56 kg/m3, the mass density (308.15 K, x2 = 0.5052) was 717.71 ± 0.58 kg/m3 and the mass density (308.15 K, x2 = 0.5986) was 706.95 ± 0.6 kg/m3. The mass density (308.15 K, x2 = 0.7259) was 693.71 ± 0.62 kg/m3, the mass density (308.15 K, x2 = 0.8066) was 686.18 ± 0.63 kg/m3 and the mass density (308.15 K, x2 = 0.908) was 677.61 ± 0.65 kg/m3. It also gave a mass density (308.15 K, x2 = 0.9523) of 674.17 ± 0.66 kg/m3.
